Assay results: patent US20080221086A1, “Novel Inhibitors of Glutaminyl Cyclase” (PROBIODRUG AG, priority 2006, published 2008)
Where two headings read alike, the source gives them in different places.

Legend:
hQC = hQC (Homo sapiens, UniProt Q16769); test: Fluorometric assay of glutaminyl cyclase (QC) inhibition, H-Gln-βNA or H-Gln-AMC substrate; type: biochemical
Summary of the method: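 Ki values were obtained by fitting progress curves to a competitive-inhibition equation, and the rapid screen used 4 mM inhibitor with substrate at 1 KM. Both readouts coupled pyroglutamyl aminopeptidase at pH 8.0 and 30° C: H-Gln-βNA at 0.2 mM (ex/em 320/410 nm) or H-Gln-AMC (380/460 nm).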

[1] = compound from preparative synthesis, purified by chromatography, fluorescent assay, read-out: IC50 hQC

Chain of hQC (Q16769 29-361): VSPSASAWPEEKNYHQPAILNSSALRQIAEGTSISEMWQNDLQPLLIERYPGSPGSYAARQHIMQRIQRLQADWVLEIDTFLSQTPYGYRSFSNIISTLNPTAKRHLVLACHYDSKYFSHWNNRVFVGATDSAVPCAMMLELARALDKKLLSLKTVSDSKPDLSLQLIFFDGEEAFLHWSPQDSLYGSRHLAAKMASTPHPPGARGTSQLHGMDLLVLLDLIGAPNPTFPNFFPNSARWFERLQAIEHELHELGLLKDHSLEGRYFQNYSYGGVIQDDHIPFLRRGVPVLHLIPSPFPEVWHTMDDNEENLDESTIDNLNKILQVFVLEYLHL

IC50 (hQC; [1]) [µM] | IC50 (hQC; read-out: IC50) [µM] | melting point [°C] | SMILES
0.0345 | 0.004 | 210 | O=C1N/C(=N\C2CCCC2)C(c2ccc3[nH]ccc3c2)N1c1ccc2[nH]cnc2c1 (stereo not shown) [Compound 226, 1-(1H-Benzoimidazol-5-yl)-4-(cyclopentylimino)-5-(1H-indol-5-yl)-imidazolidin-2-one]
0.0235 | 0.004 | 205 | O=C1N/C(=N\C2CCCCC2)C(c2ccc(Br)cc2)N1c1ccc2nc[nH]c2c1 (stereo not shown) [Compound 199, 1-(1H-Benzoimidazol-5-yl)-5-(4-bromo-phenyl)-4-(cyclohexylimino)-imidazolidin-2-one]
0.022 | 0.004 | 244 | O=C1N/C(=N/Cc2ccccc2)C(c2ccc(Br)cc2)N1c1ccc2[nH]cnc2c1 (stereo not shown) [Compound 216, 1-(1H-Benzoimidazol-5-yl)-4-benzylimino-5-(4-bromo-phenyl)-imidazolidin-2-one]
– | 4.9 | – | S=C1N/C(=N/Cc2ccc3[nH]ccc3c2)C(c2cc(Br)cc(Br)c2)N1c1ccc2nc[nH]c2c1 (stereo not shown) [Compound 132, 1-(3H-Benzoimidazol-5-yl)-5-(3,5-dibromo-phenyl)-4-1H-indol-5-ylmethylimino-imidazolidine-2-thione]
– | 0.004 | – | O=C1N/C(=N\C2CCCc3ccccc32)C(c2cccc(Br)c2)N1c1ccc2[nH]cnc2c1 (stereo not shown) [Compound 336, 1-(1H-Benzoimidazol-5-yl)-5-(3-bromo-phenyl)-4-1,2,3,4-tetrahydro-naphthalen-1-ylimino-imidazolidin-2-one]
– | 5.8 | – | CCCCC1/C(=N\c2ccc3c(c2)OCCO3)NC(=O)N1CCCn1ccnc1 (stereo not shown) [Compound 35, 5-Butyl-4-2,3-dihydro-benzo1,4dioxin-6-ylimino-1-(3-imidazol-1-yl-propyl)-imidazolidin-2-one]
– | 3.1 | – | O=c1c(C2/C(=N/Cc3ccccc3)NC(=S)N2c2ccc3[nH]cnc3c2)coc2ccccc12 (stereo not shown) [Compound 124, 3-{3-(1H-Benzoimidazol-5-yl)-5-benzylimino-2-thioxo-imidazolidin-4-yl}-chromen-4-one]
– | 6.7 | – | O=C(C/N=C1/NC(=O)N(c2ccc3[nH]cnc3c2)C1c1cc(Br)cs1)N1CCCCC1 (stereo not shown) [Compound 119, 1-(1H-Benzoimidazol-5-yl)-5-(4-bromo-thiophen-2-yl)-4-2-oxo-2-piperidin-1-yl-ethylimino-imidazolidin-2-one]
– | 4.9 | – | CCCCC1/C(=N\CCc2c[nH]c3ccccc23)NC(=O)N1CCCn1ccnc1 (stereo not shown) [Compound 59, 5-Butyl-1-(3-imidazol-1-yl-propyl)-4-2-(1H-indol-3-yl)-ethylimino-imidazolidin-2-one]
– | 3.1 | – | C/N=C1/NC(=O)N(c2ccc3[nH]cnc3c2)C1c1ccc(N2CCCC2)cc1 (stereo not shown) [Compound 269, 1-(1H-Benzoimidazol-5-yl)-4-methylimino-5-(4-pyrrolidin-1-yl-phenyl)-imidazolidin-2-one]
– | 6.7 | – | FC(F)(F)c1ccccc1/N=C1\NC(=S)N(c2ccc3[nH]cnc3c2)C1C1=CCCCC1 (stereo not shown) [Compound 149, 1-(1H-Benzoimidazol-5-yl)-5-cyclohex-1-enyl-4-2-trifluoromethyl-phenylimino-imidazolidine-2-thione]
– | 3.1 | – | O=C(C/N=C1/NC(=O)N(CCCn2ccnc2)C1c1ccc(O)cc1)N1CCc2ccccc2C1 (stereo not shown) [Compound 79, 4-2-(3,4-Dihydro-1H-isoquinolin-2-yl)-2-oxo-ethylimino-5-(4-hydroxy-phenyl)-1-(3-imidazol-1-yl-propyl)-imidazolidin-2-one]
– | 0.4 | – | O=C1N/C(=N/Cn2nnc3ccccc32)C(c2cc3c(cc2Br)OCO3)N1c1ccc2nc[nH]c2c1 (stereo not shown) [Compound 204, 1-(3H-Benzoimidazol-5-yl)-4-benzotriazol-1-ylmethylimino-5-(6-bromo-benzo1,3dioxol-5-yl)-imidazolidin-2-one]
– | 6.7 | – | O=C1N/C(=N\CCC(c2ccccc2)c2ccccc2)C(c2cccc(F)c2F)N1CCCn1ccnc1 (stereo not shown) [Compound 107]
– | 4 | – | O=C1N/C(=N/CCc2ccccn2)C(c2c[nH]c3cc(F)ccc23)N1c1ccc2[nH]cnc2c1 (stereo not shown) [Compound 345, 1-(1H-Benzoimidazol-5-yl)-5-(6-fluoro-1H-indol-3-yl)-4-2-pyridin-2-yl-ethylimino-imidazolidin-2-one]
– | 8.5 | – | O=C1N/C(=N/Cc2cccnc2)C(c2cc(F)cc(F)c2)N1CCCn1ccnc1 (stereo not shown) [Compound 90, 5-(3,5-Difluoro-phenyl)-1-(3-imidazol-1-yl-propyl)-4-pyridin-3-ylmethylimino-imidazolidin-2-one]
– | 3.1 | – | S=C1N/C(=N/CCc2cccs2)C(c2cc3ccccc3s2)N1c1ccc2[nH]cnc2c1 (stereo not shown) [Compound 260, 5-Benzobthiophen-2-yl-1-(1H-benzoimidazol-5-yl)-4-2-thiophen-2-yl-ethylimino-imidazolidine-2-thione]
– | 1.3 | – | O=C(C/N=C1/NC(=S)N(c2ccc3[nH]cnc3c2)C1c1ccnc2ccccc12)N1CCC(O)CC1 (stereo not shown) [Compound 270, 2-(1-(1H-benzo[d]imidazol-5-yl)-5-(quinolin-4-yl)-2-thioxoimidazolidin-4-ylideneamino)-1-(4-hydroxypiperidin-1-yl)ethanone]
– | 0.4 | – | O=C1N/C(=N\C2CCCC2)C(c2cc(F)cc(F)c2)N1c1ccc2[nH]cnc2c1 (stereo not shown) [Compound 244, 1-(1H-Benzoimidazol-5-yl)-4-cyclopentylimino-5-(3,5-difluoro-phenyl)-imidazolidin-2-one]
